What all share (type): in vivo, C57BL/6 mice
One assay relates to MCP-1. As to the kind of experiment: ELISA of MCP-1 in pelvis urine in UUO model. As for the experimental part:
(§1) Male 8-week-old C57BL/6 mice were purchased form National Laboratory Animal Breeding and Research Center (Taipei, Taiwan) and maintained at the animal center of the National Defense Medical Center (Taipei, Taiwan). All animal experiments were performed with the approval of the Institutional Animal Care and Use Committee of The National Defense Medical Center, Taiwan, and were consistent with the National Institutes of Health Guide for the Care and Use of Laboratory Animals.
(§2) Mice were first anesthetized with sodium pentobarbital (50 mg/kg, i.p.). After a left flank incision was taken, the left ureter was exposed, ligated with 6-0 silk sutures at two points, and cut between the two ligatures. Lastly, the peritoneal membrane and skin were sutured. Sham surgery was performed as control by following all steps of UUO-procedure except ligation and cut of ureter. (Xiao et al. Adenosine A2A receptor: a target for regulating renal interstitial fibrosis in obstructive nephropathy, PLoS One. 2013 Apr. 9; 8 (4):e60173). […]
(§3) Urine samples are collected from calyx and pelvis by 29G insulin syringe. […] MCP-1, TNF-α, and IL-1β are then detected by ELISA following instruction manual (eBioscience and R&D). […]
Background: An ELISA detects its analyte on a solid surface through an enzyme-linked reagent.

In another assay the test system is α-SMA. As to the kind of experiment: Immunohistochemical staining of renal section for α-SMA in UUO model. To be noted: UUO mice; 30 mg/kg daily i.p. Here is the method: as §1
(§4) Mice were first anesthetized with sodium pentobarbital (50 mg/kg, i.p.). After a left flank incision was taken, the left ureter was exposed, ligated with 6-0 silk sutures at two points, and cut between the two ligatures. Lastly, the peritoneal membrane and skin were sutured. Sham surgery was performed as control by following all steps of UUO-procedure except ligation and cut of ureter. (Xiao et al. Adenosine A2A receptor: a target for regulating renal interstitial fibrosis in obstructive nephropathy, PLoS One. 2013 Apr. 9; 8 (4):e60173).
(§5) Briefly, all mice received preoperative analgesia (subcutaneous injection of […] buprenorphin (Temgesic, Shering-Plough)) and the right ureter was subsequently ligated with 6.0 silk through a small abdominal incision under 2.0% isoflurane-induced anesthesia. […]

The subject of a further assay is collagen IV. Kind of assay: Immunohistochemical staining of renal section for collagen IV in UUO model. To be noted: UUO mice; 30 mg/kg daily i.p. As for the experimental part: as §1, §4, §5
The subject of the next assay is bone marrow cells. As to the kind of experiment: Stem cells and hematopoietic stem cell activation in bone marrow cells by flow cytometry in UUO model. To be noted: within three groups (sham, disease control, LCHK168). Here is the method: as §1, §4, §5
A general note: Flow cytometry measures light scatter and fluorescence of single cells or particles in a stream.

The test system of another assay is NF-κB. As to the kind of experiment: Immunohistochemical staining of renal section for NF-κB in UUO model. To be noted: UUO mice; 30 mg/kg daily i.p. Here is the method: as §1, §4, §5
The next assay concerns collagen III. Kind of assay: Immunohistochemical staining of renal section for collagen III in UUO model. To be noted: UUO mice; 30 mg/kg daily i.p. Here is the method:
as §1, §4, §5

Assay [1] relates to fibrosis tissue in the UUO interstitial area. Kind of assay: Masson's trichrome staining of renal section in UUO model. To be noted: UUO mice; 30 mg/kg daily i.p. As for the experimental part: as §1, §4, §5
Assay [2] concerns proliferating cell nuclear antigen (PCNA). As to the kind of experiment: Immunohistochemical staining of renal section for PCNA in UUO model. To be noted: UUO mice; 30 mg/kg daily i.p. Here is the method: as §1, §4, §5
Another assay has as its system splenocytes. As to the kind of experiment: B cells and T cells activation in splenocytes by flow cytometry in UUO model. To be noted: within three groups (sham, disease control, LCHK168). As for the experimental part:
as §1, §4, §5

The subject of assay [3] is apoptotic cells in UUO renal interstitial area. Kind of assay: TUNEL staining of renal section for apoptotic cells in UUO model. To be noted: UUO mice; 30 mg/kg daily i.p. As for the experimental part:
as §1, §4, §5

In the next assay the test system is IL-1β. As to the kind of experiment: ELISA of IL-1β in pelvis urine in UUO model. As for the experimental part: as §1, §2, §3
Another assay deals with TNF-α. As to the kind of experiment: ELISA of TNF-α in pelvis urine in UUO model. As for the experimental part:
as §1, §2, §3

Assay [4] concerns F4/80+ monocytes/macrophages. As to the kind of experiment: Immunohistochemical staining of renal section for F4/80 (macrophage infiltration) in UUO model. To be noted: UUO mice; 30 mg/kg daily i.p. As for the experimental part: as §1, §4, §5
Another assay relates to UUO kidney. As to the kind of experiment: Renal histopathology evaluation by H&E staining in UUO model. To be noted: 30 mg/kg daily i.p. Here is the method: as §1, §4
Briefly, all mice received preoperative analgesia (subcutaneous injection of […] buprenorphin (Temgesic, Shering-Plough)) and the right ureter was subsequently ligated with 6.0 silk through a small abdominal incision under 2.0% isoflurane-induced anesthesia. The abdomen was closed in two layers and mice were allowed to recover from surgery for 12 hours at 28° C. in a ventilated stove. Mice were sacrificed 7 or 14 days after surgery (Pulskens, et al. Nlrp3 prevents early renal interstitial edema and vascular permeability in unilateral ureteral obstruction, PLoS One. 2014 Jan. 15; 9 (1):e85775).
Ginsenoside M1, 20-O-β-D-glucopyranosyl-20(S)-protopanaxadiol (named LCHK168 below), was prepared by methods known in the art, such as those described in Taiwan Patent Application No. 094116005 (I280982) and U.S. Pat. No. 7,932,057. LCHK168 was dissolved in 3% cremophore (Sigma-Aldrich). Starting from one day before UUO operation, mice were given a daily dose of LCHK168 (30 mg/kg) by intraperitoneal injection till sacrifice.
Paraffin-embedded kidney tissues were sectioned and stained with Masson's trichrome and hematoxylin and eosin (H&E) using standard protocols. For histopathology, the tissues were fixed in 10% buffered formalin and embedded in paraffin, and then sections (3 μm) were prepared and stained with hematoxylin and eosin (H&E).
Sections all are examed after mounting. The methods of semi-quantitative analysis are according to the degree of inflammation and fibrosis on renal tubulointerstitial whereas and randomly selected 20 fields randomly for scoring. […]

A further assay concerns CD3+ T cells. Kind of assay: Immunohistochemical staining of renal section for CD3+ (T cell infiltration) in UUO model. To be noted: UUO mice; 30 mg/kg daily i.p. Here is the method: as §1, §4, §5
[5] abbreviates: day 7, compare to normal control group.
Setting [6] is: 7 days of UUO, vs disease control mice.

SMILES strings stand for the structures.

The results in this text go back to patent US10357507B2, “Use of ginsenoside M1 for inhibiting renal fibrosis” (priority 2014, dated 2019).

`CC(C)=CCC[C@](C)(O[C@@H]1O[C@H](CO)[C@@H](O)[C@H](O)[C@H]1O)[C@H]1CC[C@]2(C)[C@@H]1[C@H](O)C[C@@H]1[C@@]3(C)CC[C@H](O)C(C)(C)[C@@H]3CC[C@]12C` [LCHK168, 20-O-β-D-glucopyranosyl-20(S)-protopanaxadiol]: the “MCP-1 in renal pelvis urine” value in the assay on MCP-1 (setting [5]) is recorded as “higher”. Further, the “MCP-1 in renal pelvis urine” value in the assay on MCP-1 (day 14, compare to UUO group) is given as “significant decreased”. Further, the “α-SMA expression in UUO interstitial area” value in the assay on α-SMA is given as “decreased”. Besides, in the assay with collagen IV, the “collagen IV expression in UUO interstitial area” value is given as “decreased”. Further, in the assay with bone marrow cells, the “percentage of CD34+ (stem cell) cells in bone marrow cells” value is “no significant change” and the “percentage of Stem-cell antigen-1-positive cells (hematopoietic stem cell) in bone marrow cells” value is listed as “no significant change”. In addition, the “NF-κB expression in renal section” value in the assay on NF-κB is “inhibited”. Further, the “collagen III expression in UUO interstitial area” value in the assay on collagen III was “decreased”. Moreover, the “fibrosis tissue in the UUO interstitial area (Masson's trichrom staining)” value in assay [1] is on record as “decreased”. Further, in assay [2], the “PCNA expression in renal section” value is recorded as “decrease”. In the assay on splenocytes, the “percentage of CD3+CD69+ cells in splenocytes” value was “no significant change” and the “percentage of CD19+CD69+ cells in splenocytes” value is given as “no significant change”. Moreover, in [3], the “apoptotic cells (TUNNEL staining) in UUO renal interstitial area” value is “decrease”. For the same molecule, in the assay with IL-1β (setting [5]), the “IL-1β in renal pelvis urine” value is “higher”. Besides, the “IL-1β in renal pelvis urine” value with IL-1β (day 14, compare to UUO group) is recorded as “significant decreased”. Moreover, the “TNF-α in renal pelvis urine” value in the assay on TNF-α (setting [5]) is reported as “higher”. In the assay on TNF-α (day 14, compare to UUO group), the “TNF-α in renal pelvis urine” value is on record as “significant decreased”. In addition, the “expression of F4/80 (macrophage) in renal section” value in assay [4] is “decreased”. In the assay on UUO kidney (setting [6]), the “mononuclear leukocyte infiltration in the interstitial area (H&E)” value is recorded as “inhibited” and the “tubular dilation in the interstitial area (H&E)” value is “inhibited”. For the same molecule, in the assay on UUO kidney (14 days of UUO), the “fibrosis (H&E)” value was “significantly inhibited” and the “tubular atrophy (H&E)” value is given as “significantly inhibited”. For the same molecule, the “expression of CD3+ (T cells) in renal section” value in the assay on CD3+ T cells was “decreased”.
